Experimental data taken from patent publication US7341991B2, “Inhibitors of amyloid precursor protein processing” (Posco, priority 2004, dated 2008).
“Also recorded” adds a separate entry of the source. Primed or numbered codes have the meaning given here. Where no end group is shown, it is not given here. [ ]: non-standard residue; d: D form. FITC′ = fluorescein isothiocyanate label; Ahx = NCCCCCC(=O)O

Assays:
[1] = system: APP processing in HEK293-APP cells; assay: Cell based assay of APP processing (βCTF, Western blot) in HEK293-APP cells; design: species or system human
Description: In the neuronal cells of the brain, APP is processed by α-secretase or β-secretase. To investigate the effects of the inhibitors on the cell, a cell based assay system was developed as described in FIG. 10. C-terminal fragment of APP remaining on the cell membrane was detected by Western blot. The resulting C-terminal fragments, αCTF or βCTF are further processed by γ-secretase. However, if the cells are treated with the γ-secretase inhibitor, this processing is blocked. As a result, αCTF or βCTF accumulate in the cell. If β-secretase inhibitor or APP inhibitor is added, this processing is blocked and βCTF disappears.
To test APP inhibitor activities in cells, three complementary peptides, c-Sub M, c-Sub MΔC6, and c-Sub MΔN1C1, which show high absorbance in binding test, were added to whole cell extracts of HEK293-APP cells (Lanes 2, 3, and 4 in FIG. 11). In addition, γ-secretase inhibitor and cholesterol were added to the cells to increase βCTF level. Commercially available peptide-based β-secretase inhibitor was included as control (Lane 6, FIG. 11). To detect the N-terminal fragment of β-amyloid which is a product of APP processing, 6E10 antibody was employed. […] Recently, it has been reported that the commercially available peptide-based inhibitor had to be linked to an oligoarginine transporter peptide to have inhibitory activity against cells. Therefore, mimetic approach is adopted to produce cell permeable analogs. (Chang et al. J. Neurochemistry 2004; 89:1409-1416).
After confirming the ability of the oligo-arginine coupled APP inhibitors to enter the cells, the inhibitors were applied to HEK293-APP cells overexpressing APP to test their inhibitory activities on APP processing. […] This inhibitor started to show significant inhibitory activity beginning from 0.1 μM (lower panel).

[2] = system: cleavage of Substrate M by rhBACE (recombinant human β-secretase); assay: Fluorometric (FRET) assay for cleavage of F-Substrate M by β-secretase; type: biochemical; details: for inhibitory activity of deletion peptides on cleavage of Substrate M: 10 inhibitor/substrate ratio, Substrate M 50 μM; for inhibitory activity group on Substrate M cleavage: tested at various concentrations (FIG. 8); for inhibition of cleavage of Substrate M by β-secretase: in vitro
Text: This assay system utilizes fluorescence resonance energy transfer (FRET) technology. Substrate M was synthesized with two fluorophores, a fluorescent donor and a proprietary quenching acceptor (purchased from a commercial source, R&D Systems). […] Upon cleavage of substrate by β-secretase, the fluorophore is separated from the quenching group, restoring the full fluorescence yield of donor.
Substrate labeled with fluorophores will be called F-Substrate M (R&D Systems). Recombinant human β-secretase will be called rhBACE (recombinant human β-site APP cleavage enzyme) (purchased from R&D systems).
[…] Cleavage by rhBACE was detected by reading emitted fluorescence level.
In this assay system, fluorescence resonance energy transfer (FRET) technology was utilized. […] After pre-incubation, substrate and HC peptide mixture in assay buffer was transferred to FluoroNunc™ 96 well white plate (Nunc, Roskilde, Denmark), and rhBACE1 (70 nM) was added. Time-dependent emission of fluorescence (excitation at 320 nm, emission at 405 nm) was monitored in a Molecular Devices SpectraMax Gemini EM fluorescence reader (CA, USA) for 1 h at 37° C. All assays were carried out in duplicate.

[3] = system: Substrate M (SEVNLDAEFR, β-secretase cleavage site of APPsw); assay: Binding of biotin-labeled Substrate M to immobilized complementary (HC) peptides; details: biotin-labeled Sub M, peptide immobilized on plate
Description: (§1) Complementary peptides (0.2, 2, 20, and 200 μM) were dissolved in phosphate buffered saline (PBS) (pH 7.4) and fixed to microtiter wells for 5 hr at 37° C. The wells were blocked with blocking buffer (3% BSA/PBS) for 1 hr at 37° C. Either N-terminally biotinylated Substrate W or M (20 μM) in blocking buffer was added and incubated for overnight at 4° C. Streptavidin-horseradish peroxidase in blocking buffer was added to detect resulting bound substrates. The plate was incubated for 2 hr at room temperature (RT), followed by addition of 3, 3′, 5,5′-tetramethyl-benzidine (TMB) as substrate for horseradish peroxidase for color reaction.
(§2) Reacti-Bind™ maleic anhydride-activated polystyrene plate (Pierce, IL, USA) was coated with 50 μl of HC peptide (200 μM in distilled water) by chemical coupling for 3 h at room temperature (RT) and washed three times with phosphate buffered saline (PBS) containing 0.05% tween 20 (PBST). The plate was blocked with blocking buffer (0.5% gelatin in PBS) for 1 h at RT. After discarding blocking buffer, biotinylated BACE1 substrates (200 μM) in blocking buffer was applied on the plate and incubated for 2.5 h at RT. Each well was washed three times with PBST. The bound biotinylated BACE1 substrates were detected by incubation with streptavidin-horseradish peroxidase (Str-HRP, 125 mU/ml in blocking buffer) for 2 h at RT. Color reaction was carried out with 50 μl of 3,3′,5,5′-Tetramethylbenzidine Liquid Substrate (Sigma-Aldrich, MO, USA). After stopping the reaction by addition of an equal volume of 1 N HCl, absorbance at 450 nm was read in an automated ELISA reader (EL 312e, Bio-Tek Instruments, VT, USA). All assays were carried out in duplicate.

[4] = target: T1, Substrate W (SEVKMDAEFR, β-secretase cleavage site of wild type APP) (Homo sapiens, UniProt P05067); assay: Binding of biotin-labeled Substrate W to immobilized complementary (HC) peptides; details: biotin-labeled Sub W, peptide immobilized on plate
T1 construct: purchased Peptron, Inc; host or cells: chemical synthesis
Description: as §1
In particular, for Substrate W, complementary peptides (200 μM) dissolved in phosphate buffered saline (PBS) (pH 7.4) were chemically coupled to Reacti-Bind Maleic Anhydride Activated Polystyrene wells (Pierce Biotechnology, Inc.) for overnight at room temperature (RT). Remaining active sites of the plate were inactivated by adding ethanolamine (1 M) for 1 hr at RT. The wells were blocked with blocking buffer (3% BSA/PBS) for 1 hr at RT. N-terminally biotinylated Substrate W (20 μM) in blocking buffer was added and incubated for 3 hr at RT. Streptavidin-horseradish peroxidase in blocking buffer was added to detect resulting bound substrates. The plate was incubated for 2 hr at room temperature (RT), followed by addition of 3,3′,5,5′-tetramethyl-benzidine (TMB) as substrate for horseradish peroxidase for color reaction.
as §2

[5] = system: Aβ production in HEK 293-APP cells; assay: Measurement of Aβ level in culture media (Aβ1-40 immunoassay); type: cell-based, human; details: HEK293-APP cells
Description: Human embryonic kidney (HEK) 293 cells stably transformed with the gene for APP695 (HEK 293-APP) were used for studies on the inhibitory activity of HC peptides. HEK 293-APP cells were generously supplied by Dr. T W Kim (Columbia University, NY, USA). HEK 293-APP cells were cultured in Dulbecco's Modified Eagle's Medium (DMEM) (Invitrogen, CA, USA) with 10% fetal bovine serum (HyClone, UT, USA) and 300 μg/ml of geneticin (Invitrogen, CA, USA) in a humidified atmosphere of 5% CO2, 95% air at 37° C. Cells were subcultured after trypsinization, and the medium was changed every 2-3 days.
The culture media from the peptide-treated cells (see above) was harvested and centrifuged at 3500×g for 10 min. Amount of Aβ in the supernatant was determined with human Aβ1-40 immunoassay kits (Signal Select™, BioSource, CA, USA) according to the instruction provided by the company.

[6] = system: cleavage of APP by BACE1 (CTFβ) in HEK 293-APP cells; assay: Level of CTFβ in treated cells (immunoblot, 6E10); type: cell-based, human; details: HEK293-APP cells; for accumulation of cleavage product CTFβ: 9 h
Description: When the confluency of the cells reached 90%, the cells were washed with PBS once, and HC peptide in serum free DMEM was added to the cells. […] The lysed cells were centrifuged at 12000×g for 10 min at 4° C. The protein in the supernatant was determined by bicinchoninic acid assay (Pierce, IL, USA) [Smith, P. K., Krohn, R. I., Hermanson, G. T., Mallia, A. K., Gartner, F. H., Provenzano, M. D., Fujimoto, E. K., Goeke, N. M., Olson, B. J., and Klenk, D. C. […] After electrophoresis, the proteins in the gel were electrophoretically transferred onto a polyvinylidene difluoride (PVDF) membrane at 100 mA for 80 min. The blotted membrane was fixed with 0.2% glutaraldehyde in PBS for 45 min at RT and treated for 5 min in boiling PBS. CTFβ (the C-terminal fragment of APP generated by BACE1) was detected by treatment of the membrane with 0.5 μg/ml of anti-Aβ N terminal 6E10 antibody (Signetlabs, Inc., MA, USA) followed by incubation with 0.2 μg/ml of anti-mouse antibody coupled with HRP (Amersham Biosciences Ltd. Uppsala, Sweden). The developed film was scanned and the density of CTFβ band was determined by Scion Image Program (Scion Corporation, MD, USA).

SEFC [c-Sub MΔC6]
inhibitory activity on APP processing ([1]; βCTF): none of the inhibitors tested showed inhibitory activity

CIQI (CIQI-NH2) [C-Sub MΔN3C3]
inhibitory activity of deletion peptides on cleavage of Substrate M [2]: considerable inhibitory activity | inhibitory activity group on Substrate M cleavage [2]: medium activity

CIQIHF (CIQIHF-NH2) [c-Sub M ΔN3C1]
inhibitory activity of deletion peptides on cleavage of Substrate M [2]: considerable inhibitory activity | inhibitory activity for cleavage of f-Sub M by rhBACE1 ([2]; HC peptide 0.5 mM, f-Sub M 10 μM (Table 2)): without sacrificing the inhibitory activity too much | inhibition of cleavage of Substrate M by β-secretase ([2]; rhBACE1): maintains much of the original activity of c-Sub M; also recorded: less active than longer HC peptide | inhibitory activity relative to c-Sub M ΔN1C1 ([2]; substrate concentration 10 μM): about one tenth | inhibitory activity group on Substrate M cleavage [2]: less activity

SEFCIQI (SEFCIQI-NH2) [c-SubM ΔC3]
inhibitory activity group on Substrate M cleavage [2]: most active

SEFCIHLHFR (SEFCIHLHFR-NH2) [c-Sub W]
binding to Substrate M [3]: weak but significant binding | binding to Substrate W [4]: bind | inhibitory activity for cleavage of f-Sub M by rhBACE1 ([2]; HC peptide 1 mM, f-Sub M 10 μM): higher inhibitory activity | inhibition of cleavage of Substrate M by β-secretase ([2]; rhBACE1): inhibit cleavage | inhibitory activity group on Substrate M cleavage [2]: medium activity

SEFCI (SEFCI-NH2) [c-SubM ΔC5]
inhibitory activity group on Substrate M cleavage [2]: medium activity

RLHFYLRLKA [Sub W-c]
binding to Substrate W [4]: do not bind | inhibition of cleavage of Substrate M by β-secretase ([2]; rhBACE1): do not inhibit cleavage

c-Sub MΔN1C1-R9: c-Sub MΔN1C1 coupled with oligo-arginine (9 Arginines), labeled with FITC using a linker AHX ({FITC′-Ahx}-EFCIQIHFRRRRRRRRR)
inhibition of cleavage of Substrate M by β-secretase ([2]; rhBACE1): less inhibitory activity | inhibitory activity on APP processing ([1]; βCTF): inhibitory activity in a concentration dependent manner

SEFCIQIHF [c-Sub M ΔC1]
binding to Substrate M [3]: relatively high binding activity

NH2-(CH2)5-CO—Cys-Ile-Gln-Ile-His-Phe-NH2 ([Ahx]CIQIHF-NH2; N-terminus assumed; SMILES CC[C@H](C)[C@H](NC(=O)[C@H](CCC(N)=O)NC(=O)[C@@H](NC(=O)[C@H](CS)NC(=O)CCCCCN)[C@@H](C)CC)C(=O)N[C@@H](Cc1c[nH]cn1)C(=O)N[C@@H](Cc1ccccc1)C(N)=O) [AHX-c-Sub M ΔN3C1]
in vitro inhibitory activity relative to non-modified c-Sub M ΔN3C1 ([2]; f-Sub M, rhBACE1): half | reduction of amount of Aβ released ([5]; 6.25 μM, 9 h): about 70% | inhibition of Aβ production / APP processing in the cells [5]: reduced in a concentration dependent manner | forms of CTFβ whose accumulation is inhibited [6]: both forms | accumulation of cleavage product CTFβ [6]: inhibited accumulation

c-Sub M-R9: c-Sub M coupled with oligo-arginine (9 Arginines), labeled with FITC using a linker AHX ({FITC′-Ahx}-SEFCIQIHFRRRRRRRRRR)
inhibition of cleavage of Substrate M by β-secretase ([2]; rhBACE1): no inhibitory activity | inhibitory activity on APP processing ([1]; 10 μM): no inhibitory activity | inhibitory activity on APP processing ([1]; low concentration): some inhibitory activity

β-secretase inhibitor IV [reference compound]
inhibition of production of Aβ ([5]; 2 μM): about 90% | forms of CTFβ whose accumulation is inhibited [6]: only the nonphosphorylated form | accumulation of cleavage product CTFβ [6]: inhibited accumulation

RLHLDLRLKA [Sub M-c]
binding to Substrate M [3]: do not bind and not | inhibitory activity for cleavage of f-Sub M by rhBACE1 ([2]; HC peptide 1 mM, f-Sub M 10 μM): not | inhibition of cleavage of Substrate M by β-secretase ([2]; rhBACE1): do not inhibit cleavage
